US20250026721A1, “COMPOUNDS AND METHODS FOR MODULATING RAS-PI3K” (Vividion Therapeutics, Inc., priority 2023, published 2025)

Biological target: T1, PIK3CA (Homo sapiens, UniProt P42336)
T1 construct: endogenous in cells; host or cells: Jurkat cell lysate
Test: In vitro ELISA target engagement assay for PIK3CA in Jurkat cellular lysate (competition with PIK3CA Biotin Probe)
Format: binding
Settings: 1 hour at rt, then 500 nM PIK3CA Biotin Probe, read-out: Elisa Target Engagement Assay (TE50)
Procedure: Example 3. In Vitro ELISA Target Engagement Assay for […] Engagement of compounds on PIK3CA were assessed in Jurkat cellular lysate via a sandwich ELISA. A solution of PIK3CA Biotin Probe was generated at 10 mM and used in the biological testing. […] Treatment Protocol: Jurkat cellular lysate was generated from frozen cell pellets. Cells were thawed on ice and resuspended in cold Dulbecco's phosphate buffered saline (DPBS) (12 mL/300 e^6 cells) then lysed by probe sonication (12×3 second pulses). Jurkat lysate was plated (50 μl/well) in Armadillo 96 well PCR plates (Thermo Fisher catalog number AB2396). The lysate was treated with serial dilutions of test compounds up to 200 μM and incubated for 1 hour at rt. Following compound incubation, PIK3CA Biotin Probe was added to a final concentration of 500 nM, and lysate was mixed by pipetting gently and incubated for an additional 1 hour at rt. The mixture was then diluted in 75 μL Dilution buffer. The mixture was centrifuged for 5 minutes at 4122 g and stored at −80° C. until ELISA TE detection. ELISA TE Detection: Quantification of PIK3CA TE was initiated by coating of the ELISA plate (Thermo Scientific White 384-Well Immuno plates; Thermo Fisher catalog number 460372). The capture antibody was diluted in plating buffer (1:83) and added to the ELISA plate, 20 μl/well, overnight at 4° C. The plate was then washed twice with PBST, 100 μl/well, and blocked with addition of blocking buffer (100 μl/well, 1 hour at rt). During block, treated and probe labeled lysate was thawed. After Block, the block buffer was removed and the thawed lysate was added to the ELISA plate, 30 μl/well, for 1.5 hours at rt. Following lysate incubation, the assay plate was washed 3 times with PBST, 100 μl/well. The Neutravidin-HRP was then diluted (1:500 in dilution buffer) and added for 1 hour at rt, 20 μl/well. Following incubation, the assay plate was washed 4 times with PBST, 100 μl/well, HRP substrate was added to plate, 20 μl/well and luminescence signal was read (Clariostar Plate Reader). For each compound the potency of target engagement (TE50) was determined using Graphpad Prism.

T1 sequence (P42336 whole entry): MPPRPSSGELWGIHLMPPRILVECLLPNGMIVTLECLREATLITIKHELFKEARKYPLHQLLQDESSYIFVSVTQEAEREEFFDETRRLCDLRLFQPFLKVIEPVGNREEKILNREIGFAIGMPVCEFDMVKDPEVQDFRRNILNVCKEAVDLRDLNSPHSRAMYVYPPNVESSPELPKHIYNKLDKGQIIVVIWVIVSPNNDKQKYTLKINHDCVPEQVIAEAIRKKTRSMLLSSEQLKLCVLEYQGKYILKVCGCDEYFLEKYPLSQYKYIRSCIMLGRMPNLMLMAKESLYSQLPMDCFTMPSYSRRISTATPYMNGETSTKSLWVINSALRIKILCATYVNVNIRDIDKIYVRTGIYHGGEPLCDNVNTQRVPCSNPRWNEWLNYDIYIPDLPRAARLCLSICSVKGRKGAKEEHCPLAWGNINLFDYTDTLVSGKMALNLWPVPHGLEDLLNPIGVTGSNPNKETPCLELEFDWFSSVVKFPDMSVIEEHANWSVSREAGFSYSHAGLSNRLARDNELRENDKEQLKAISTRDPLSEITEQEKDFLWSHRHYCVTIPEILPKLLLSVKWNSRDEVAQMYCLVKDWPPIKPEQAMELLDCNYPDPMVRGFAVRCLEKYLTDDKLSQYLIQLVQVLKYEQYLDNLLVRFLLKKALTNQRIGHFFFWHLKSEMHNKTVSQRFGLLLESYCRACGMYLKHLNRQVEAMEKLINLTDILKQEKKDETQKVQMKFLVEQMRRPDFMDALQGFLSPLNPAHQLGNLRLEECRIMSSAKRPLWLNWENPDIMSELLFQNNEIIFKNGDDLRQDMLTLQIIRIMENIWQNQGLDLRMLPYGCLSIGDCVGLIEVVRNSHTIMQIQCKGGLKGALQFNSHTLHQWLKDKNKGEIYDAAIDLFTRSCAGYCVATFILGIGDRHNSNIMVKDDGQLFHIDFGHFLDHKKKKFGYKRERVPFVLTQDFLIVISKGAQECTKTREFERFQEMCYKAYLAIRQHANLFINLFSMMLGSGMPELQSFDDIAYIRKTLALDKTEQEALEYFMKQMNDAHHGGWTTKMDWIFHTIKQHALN
T1 sequence (P27986 whole entry partner): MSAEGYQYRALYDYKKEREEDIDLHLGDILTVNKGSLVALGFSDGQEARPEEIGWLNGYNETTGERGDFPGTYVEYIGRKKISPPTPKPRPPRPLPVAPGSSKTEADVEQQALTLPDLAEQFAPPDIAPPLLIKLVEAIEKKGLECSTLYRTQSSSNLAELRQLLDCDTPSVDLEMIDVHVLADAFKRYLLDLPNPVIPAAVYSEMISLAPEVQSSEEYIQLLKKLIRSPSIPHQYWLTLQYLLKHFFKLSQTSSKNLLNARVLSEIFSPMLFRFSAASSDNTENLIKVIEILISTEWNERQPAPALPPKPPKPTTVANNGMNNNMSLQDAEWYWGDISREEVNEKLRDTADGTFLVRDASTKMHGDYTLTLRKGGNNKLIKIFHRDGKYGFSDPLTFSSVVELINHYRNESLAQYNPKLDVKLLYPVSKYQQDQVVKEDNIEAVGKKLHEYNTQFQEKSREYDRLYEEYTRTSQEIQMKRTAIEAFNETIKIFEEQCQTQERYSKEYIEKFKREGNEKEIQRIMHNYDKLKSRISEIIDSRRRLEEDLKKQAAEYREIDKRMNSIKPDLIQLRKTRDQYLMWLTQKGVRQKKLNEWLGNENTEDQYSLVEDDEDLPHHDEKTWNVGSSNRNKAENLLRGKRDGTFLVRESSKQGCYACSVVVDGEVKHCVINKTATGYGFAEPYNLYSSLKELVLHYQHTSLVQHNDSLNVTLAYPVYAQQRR

| Structure (SMILES) | IC50 |
| --- | --- |
| C[C@H](/C=C\S(C)(=O)=O)NC(=O)C1(F)CCN(C(=O)[C@H]2CN(CC(F)(F)F)C[C@H]2c2ccccc2Cl)CC1 [Compound 163, 1-((3R,4R)-4-(2-chlorophenyl)-1-(2,2,2-trifluoroethyl)pyrrolidine-3-carbonyl)-4-fluoro-N-((R,Z)-4-(methylsulfonyl)but-3-en-2-yl)piperidine-4-carboxamide] | 500 nM |
| COc1ccc(S(=O)(=O)N2CC[C@@](F)(C(=O)NC/C=C\C(=O)N3CC(F)(F)C3)C[C@H]2C)c(-c2ccccc2Cl)c1 [Compound 288, (2R,4S)-1-((2′-chloro-5-methoxy-[1,1′-biphenyl]-2-yl)sulfonyl)-N-((Z)-4-(3,3-difluoroazetidin-1-yl)-4-oxobut-2-en-1-yl)-4-fluoro-2-methylpiperidine-4-carboxamide] | 490 nM |
| COc1ccc(S(=O)(=O)N2CCC(F)(C(=O)N[C@H](/C=C\S(C)(=O)=O)CC(F)(F)F)CC2)c(-c2ccccc2Cl)c1 (single isomer, unassigned) [Compound 239, (*S,Z)-1-((2′-chloro-5-methoxy-[1,1′-biphenyl]-2-yl)sulfonyl)-4-fluoro-N-(5,5,5-trifluoro-1-(methylsulfonyl)pent-1-en-3-yl)piperidine-4-carboxamide] | 280 nM |
| COc1ccc(S(=O)(=O)N2CC[C@@](F)(C(=O)N[C@H](C)/C=C\S(C)(=O)=O)C[C@@H]2C)c(-c2ccccc2Cl)c1 (single isomer, unassigned) [Compound 148, (2*S,4*S)-1-((2′-chloro-5-methoxy-[1,1′-biphenyl]-2-yl)sulfonyl)-4-fluoro-2-methyl-N-((R,Z)-4-(methylsulfonyl)but-3-en-2-yl)piperidine-4-carboxamide] | 600 nM |
| COC1(C(=O)N[C@H](C)/C=C\S(C)(=O)=O)CCN(S(=O)(=O)c2ccc(C(F)(F)F)cc2-c2ccccc2Cl)CC1 [Compound 139, (R,Z)-1-((2′-chloro-5-(trifluoromethyl)-[1,1′-biphenyl]-2-yl)sulfonyl)-4-methoxy-N-(4-(methylsulfonyl)but-3-en-2-yl)piperidine-4-carboxamide] | 330 nM |
| CC[C@H](/C=C/S(=O)(=O)C1CNC1)NC(=O)C1(F)CCN(S(=O)(=O)c2ccc(Br)cc2-c2ccccc2Cl)CC1 [Compound 77, (R,E)-N-(1-(azetidin-3-ylsulfonyl)pent-1-en-3-yl)-1-((5-bromo-2′-chloro-[1,1′-biphenyl]-2-yl)sulfonyl)-4-fluoropiperidine-4-carboxamide] | 128 nM |
| CCc1ccccc1-c1cc(Br)ccc1S(=O)(=O)N1CCC(F)(C(=O)N[C@H](C)/C=C\S(C)(=O)=O)CC1 [Compound 51, (R,Z)-1-((5-bromo-2′-ethyl-[1,1′-biphenyl]-2-yl)sulfonyl)-4-fluoro-N-(4-(methylsulfonyl)but-3-en-2-yl)piperidine-4-carboxamide] | 550 nM |
| Cc1ccccc1-c1cc(Br)ccc1S(=O)(=O)N1CCC(F)(C(=O)N[C@H](C)/C=C\S(C)(=O)=O)CC1 [Compound 49, (R,Z)-1-((5-bromo-2′-methyl-[1,1′-biphenyl]-2-yl)sulfonyl)-4-fluoro-N-(4-(methylsulfonyl)but-3-en-2-yl)piperidine-4-carboxamide] | 125 nM |
| C[C@H](/C=C\S(C)(=O)=O)NC(=O)C1(F)CCN(C(=O)[C@@H]2CCC3(CCC3)C[C@H]2c2ccccc2Cl)CC1 (racemic) [Compound 257, 1-((6*R,7*R)-6-(2-chlorophenyl)spiro[3.5]nonane-7-carbonyl)-4-fluoro-N-((R,Z)-4-(methylsulfonyl)but-3-en-2-yl)piperidine-4-carboxamide] | 420 nM |
| CS(=O)(=O)C=C1CN(C(=O)C2(F)CCN(S(=O)(=O)c3ccc(Br)cc3-c3ccccc3Cl)CC2)C1 [Compound 273, (1-((5-bromo-2′-chloro-[1,1′-biphenyl]-2-yl)sulfonyl)-4-fluoropiperidin-4-yl)(3-((methylsulfonyl)methylene)azetidin-1-yl)methanone] | 830 nM |
